The values below come from ChEMBL document CHEMBL5365407, “Design, synthesis and biological evaluation of nitric oxide-releasing 5-cyano-6-phenyl-2, 4-disubstituted pyrimidine derivatives” (Bioorg Med Chem Lett, 2023).

Each structure is given as a SMILES string. Where only a bound is given, the exact number is not on record here.

In one test the test system is MCF7. The test can be described thus: cells. Conditions: Homo sapiens, MCF7, 72 h.
For the next test, the system named is MGC-803. As to the kind of experiment: cells. Conditions: Homo sapiens, MGC-803, 72 h.
A further test has as its system ECa-109 cell line. The test can be described thus: Antiproliferative activity against human Eca-109 cells measured after 72 hrs by MTT assay. The class given is functional, cell-based. The conditions noted are these: ECa-109, 72 h. A general note: Formazan colour is commonly taken as a measure of viable cells.
For a further test, the system named is PC-3. As to the kind of experiment: Antiproliferative activity against human PC-3 cells measured after 72 hrs by MTT assay. The class given is functional, cell-based. Conditions: PC-3, 72 h.

Description for MCF7: Antiproliferative activity against human MCF7 cells measured after 72 hrs by MTT assay
Description for MGC-803: Antiproliferative activity against human MGC-803 cells measured after 72 hrs by MTT assay

Usually IC50 stands for the point on the concentration scale where inhibition reaches its midpoint. Read a high IC50 as lower potency. Regarding `N#Cc1c(Nc2cccc(C(F)(F)F)c2)nc(SCC(=O)N2CCN(CCOc3no[n+]([O-])c3S(=O)(=O)c3ccccc3)CC2)nc1-c1ccccc1`, the concentration for half-maximal inhibition (IC50) in the test with MCF7 was 2210 nM; with MGC-803 it was 1260 nM; in the test on ECa-109 cell line it was 2890 nM; with PC-3, 2190 nM.
The corresponding values for `CCCc1cccc(Nc2nc(SCC(=O)N3CCN(CCOc4no[n+]([O-])c4S(=O)(=O)c4ccccc4)CC3)nc(-c3ccccc3)c2C#N)c1` are 3030 nM, 1890 nM, 8050 nM and 2920 nM.
The corresponding values for `CCN1CCN(c2nc(SCC(=O)N3CCN(CCOc4no[n+]([O-])c4S(=O)(=O)c4ccccc4)CC3)nc(-c3ccccc3)c2C#N)CC1` are 2240 nM, 1240 nM, 2270 nM and 1420 nM.
On to `N#Cc1c(-c2ccccc2)nc(SCC(=O)N2CCN(CCOc3no[n+]([O-])c3S(=O)(=O)c3ccccc3)CC2)nc1N1CCSCC1`, for which the IC50 in the test with MCF7 is 6810 nM; with MGC-803 it was 4610 nM; in the test on ECa-109 cell line, 6680 nM; in the test on PC-3, 5050 nM.
For `O=S(=O)(c1ccccc1)c1c(OCCN2CCNCC2)no[n+]1[O-]`, the midpoint of inhibition with MGC-803, the IC50, lay at 6740 nM.
For the compound `CCCc1ccc(Nc2nc(SCC(=O)N3CCN(CCOc4no[n+]([O-])c4S(=O)(=O)c4ccccc4)CC3)nc(-c3ccccc3)c2C#N)cc1`, the IC50 turned out to be 2070 nM in the test with MCF7, 1090 nM in the test on MGC-803, 5420 nM with ECa-109 cell line and 1160 nM in the test with PC-3.
Take `COc1ccccc1Nc1nc(SCC(=O)N2CCN(CCOc3no[n+]([O-])c3S(=O)(=O)c3ccccc3)CC2)nc(-c2ccccc2)c1C#N`: the half-inhibitory concentration (IC50) in the test on MCF7 turned out to be 3300 nM; with MGC-803, 1460 nM; with ECa-109 cell line, 4700 nM; with PC-3 it was 1700 nM.
As to `Cc1ccccc1Nc1nc(SCC(=O)N2CCN(CCOc3no[n+]([O-])c3S(=O)(=O)c3ccccc3)CC2)nc(-c2ccccc2)c1C#N`, the half-inhibitory concentration (IC50) with MCF7 worked out at 2330 nM; in the test on MGC-803 it was 1590 nM; with ECa-109 cell line, 2480 nM; with PC-3, 2250 nM.
With `Cc1ccc(Nc2nc(SCC(=O)N3CCN(CCOc4no[n+]([O-])c4S(=O)(=O)c4ccccc4)CC3)nc(-c3ccccc3)c2C#N)cc1`, the 50% inhibitory concentration (IC50) in the test on MCF7 stood at 2140 nM; in the test on MGC-803, 1360 nM; in the test with ECa-109 cell line, 2940 nM; in the test on PC-3, 2370 nM.
On to `CN1CCN(c2nc(SCC(=O)N3CCN(CCOc4no[n+]([O-])c4S(=O)(=O)c4ccccc4)CC3)nc(-c3ccccc3)c2C#N)CC1`, for which the IC50 in the test with MCF7 came out at 2690 nM; in the test on MGC-803, 1460 nM; in the test on ECa-109 cell line, 2340 nM; in the test with PC-3, 1570 nM.
The corresponding values for `N#Cc1c(Nc2ccccc2F)nc(SCC(=O)N2CCN(CCOc3no[n+]([O-])c3S(=O)(=O)c3ccccc3)CC2)nc1-c1ccccc1` are 2280 nM, 1440 nM, 3560 nM and 1190 nM.
On to `N#Cc1c(Nc2ccccc2)nc(SCC(=O)OCCCCCOc2no[n+]([O-])c2S(=O)(=O)c2ccccc2)nc1-c1ccccc1`, for which the half-maximal inhibitory concentration (IC50) in the test on MCF7 is 5940 nM; with MGC-803, 3800 nM; in the test on ECa-109 cell line, more than 50000 nM; in the test on PC-3, 2280 nM.
Regarding `N#Cc1c(Nc2ccccc2)nc(SCC(=O)OCCCCOc2no[n+]([O-])c2S(=O)(=O)c2ccccc2)nc1-c1ccccc1`, the IC50 was 5080 nM in the test on MCF7, 7000 nM in the test with MGC-803, more than 50000 nM in the test on ECa-109 cell line and 2450 nM in the test with PC-3.
Regarding `N#Cc1c(Nc2ccccc2)nc(SCC(=O)OCCCOc2no[n+]([O-])c2S(=O)(=O)c2ccccc2)nc1-c1ccccc1`, the IC50 in the test with MCF7 worked out at 7660 nM; with MGC-803 it was 7310 nM; in the test on ECa-109 cell line, 8580 nM; in the test on PC-3 it was 2320 nM.
The matching figures for `N#Cc1c(Nc2ccccc2C(F)(F)F)nc(SCC(=O)N2CCN(CCOc3no[n+]([O-])c3S(=O)(=O)c3ccccc3)CC2)nc1-c1ccccc1`: 2260 nM, 1670 nM, 3850 nM and 3020 nM.
For the compound `N#Cc1c(Nc2ccccc2)nc(SCC(=O)OCC#CCOc2no[n+]([O-])c2S(=O)(=O)c2ccccc2)nc1-c1ccccc1`, the half-maximal inhibitory concentration (IC50) came to 10400 nM in the test on MCF7, 2670 nM with MGC-803, 3270 nM in the test with ECa-109 cell line and 2060 nM with PC-3.
As for `N#Cc1c(Nc2ccc(Cl)c(Cl)c2)nc(SCC(=O)N2CCN(CCOc3no[n+]([O-])c3S(=O)(=O)c3ccccc3)CC2)nc1-c1ccccc1`, the IC50 in the test on MCF7 came to 3350 nM; with MGC-803 it was 1880 nM; with ECa-109 cell line it was 3920 nM; in the test with PC-3, 1850 nM.
For the compound `CCc1cccc(Nc2nc(SCC(=O)N3CCN(CCOc4no[n+]([O-])c4S(=O)(=O)c4ccccc4)CC3)nc(-c3ccccc3)c2C#N)c1`, the IC50 in the test with MCF7 came out at 2870 nM; with MGC-803, 1110 nM; with ECa-109 cell line it was 4100 nM; in the test on PC-3 it was 2400 nM.
For the compound `CCCc1ccccc1Nc1nc(SCC(=O)N2CCN(CCOc3no[n+]([O-])c3S(=O)(=O)c3ccccc3)CC2)nc(-c2ccccc2)c1C#N`, the IC50 in the test with MCF7 was 2740 nM; with MGC-803, 2040 nM; in the test on ECa-109 cell line it was 4610 nM; in the test on PC-3 it was 2150 nM.
Regarding `COc1cccc(Nc2nc(SCC(=O)N3CCN(CCOc4no[n+]([O-])c4S(=O)(=O)c4ccccc4)CC3)nc(-c3ccccc3)c2C#N)c1`, the IC50 in the test on MCF7 is 2090 nM; with MGC-803, 1540 nM; with ECa-109 cell line it was 4600 nM; in the test on PC-3 it was 3380 nM.
With `C=CC(=O)Nc1cccc(Nc2nc(SCC(=O)N3CCN(CCOc4no[n+]([O-])c4S(=O)(=O)c4ccccc4)CC3)nc(-c3ccccc3)c2C#N)c1`, the 50% inhibitory concentration (IC50) in the test with MCF7 came to 4220 nM; in the test with MGC-803 it was 1410 nM; in the test with ECa-109 cell line it was 3660 nM; with PC-3 it was 1880 nM.
Turning to `N#Cc1c(Nc2ccccc2)nc(SCC(=O)N2CCC(Oc3no[n+]([O-])c3S(=O)(=O)c3ccccc3)C2)nc1-c1ccccc1` (stereo unspecified), the IC50 in the test on MCF7 was determined as 3550 nM; with MGC-803 it was 3560 nM; in the test with ECa-109 cell line it was 4390 nM; in the test with PC-3 it was 2180 nM.
The matching figures for `CCc1ccccc1Nc1nc(SCC(=O)N2CCN(CCOc3no[n+]([O-])c3S(=O)(=O)c3ccccc3)CC2)nc(-c2ccccc2)c1C#N`: 2600 nM, 2010 nM, 4420 nM and 2930 nM.
With `N#Cc1c(Nc2ccc(C(F)(F)F)cc2)nc(SCC(=O)N2CCN(CCOc3no[n+]([O-])c3S(=O)(=O)c3ccccc3)CC2)nc1-c1ccccc1`, the IC50 with MCF7 was found to be 2230 nM; in the test with MGC-803 it was 1560 nM; in the test with ECa-109 cell line, 4640 nM; in the test with PC-3, 3520 nM.
For the compound `N#Cc1c(Nc2ccccc2)nc(SCC(=O)N2CCC(Oc3no[n+]([O-])c3S(=O)(=O)c3ccccc3)CC2)nc1-c1ccccc1`, the IC50 came out at 6020 nM in the test with MCF7, 2570 nM in the test with MGC-803, 7030 nM in the test on ECa-109 cell line and 2010 nM in the test with PC-3.
For the compound `N#Cc1c(Nc2ccccc2)nc(SCC(=O)NCCOc2no[n+]([O-])c2S(=O)(=O)c2ccccc2)nc1-c1ccccc1`, the half-inhibitory concentration (IC50) in the test with MCF7 is 4160 nM; with MGC-803, 2580 nM; with ECa-109 cell line, 6350 nM; with PC-3 it was 2370 nM.
